Measurements published in PubChem BioAssay (NCI).
Several values for one entry are separate records, joined by “and”; a condition that tells them apart may be missing. Equal entries are not always repeated.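 These data come from cells grown in 96-well plates and exposed to compound for 48 hours at five concentrations. Abbreviation: GI50, concentration required for 50% inhibition of growth. Definition used: TGI = concentration required for complete inhibition of growth.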

Tests used:
Test in all cases: NCI anticancer screen, dose series, 48 h
SNB-75 CNS = system: SNB-75 CNS
CAKI-1 renal = system: CAKI-1 renal
SK-MEL-28 melanoma = system: SK-MEL-28 melanoma
NCI-H23 lung = system: NCI-H23 lung
M14 melanoma = system: M14 melanoma
RXF 393 renal = system: RXF 393 renal
OVCAR-3 ovarian = system: OVCAR-3 ovarian
OVCAR-5 ovarian = system: OVCAR-5 ovarian
HOP-92 NSCLC = system: HOP-92 NSCLC
SF-539 CNS = system: SF-539 CNS

| Compound | GI50 (SNB-75 CNS) | TGI (SNB-75 CNS) | GI50 (CAKI-1 renal) | TGI (CAKI-1 renal) | GI50 (SK-MEL-28 melanoma) | TGI (SK-MEL-28 melanoma) | GI50 (NCI-H23 lung) | TGI (NCI-H23 lung) | GI50 (M14 melanoma) | TGI (M14 melanoma) | GI50 (RXF 393 renal) | TGI (RXF 393 renal) | GI50 (OVCAR-3 ovarian) | TGI (OVCAR-3 ovarian) | GI50 (OVCAR-5 ovarian) | TGI (OVCAR-5 ovarian) | GI50 (HOP-92 NSCLC) | TGI (HOP-92 NSCLC) | GI50 (SF-539 CNS) | TGI (SF-539 CNS) |
| --- | --- | --- | --- | --- | --- | --- | --- | --- | --- | --- | --- | --- | --- | --- | --- | --- | --- | --- | --- | --- |
| O=C(Nc1ccc(-c2ccccc2)cc1)C1CCN(S(=O)(=O)c2ccccc2Cl)CC1 | 36.5 µM | > 100 µM | 53 µM | > 100 µM | > 100 µM | > 100 µM | 76.2 µM | > 100 µM | 64.1 µM | > 100 µM | 2.09 µM | 5 µM | 41.9 µM | > 100 µM | 50 µM | > 100 µM | 32.2 µM | 91.2 µM | 12 µM | 37.3 µM |
| COc1ccc(OC)c2c(/C=C/c3ccc(N(C)C)cc3)ccnc12 | – | > 10 µM | – | > 10 µM | – | > 10 µM | – | > 10 µM | – | > 10 µM | – | > 10 µM | – | > 10 µM | – | > 10 µM | – | > 10 µM | – | 6.07 µM |
| C[C@]12CC[C@H](O)C[C@H]1CC[C@@H]1[C@@H]2CC[C@]2(C)[C@@H](C3=CC(=O)OC3)CC[C@]12O | – | 2.12 µM | – | 0.18 µM | – | 2.01 µM | – | – | – | 1.6 µM | – | 0.0681 µM | – | 0.204 µM | – | 1.93 µM | – | 1.1 µM | – | 0.16 µM |
| COc1cc2c(c(OC)n1)[C@]1(O)[C@H](O)[C@H](CN(C)C)[C@@H](c3ccccc3)[C@]1(c1ccc(C#N)cc1)O2 | 0.1 µM and 0.047 µM | 4.58 µM and 2.02 µM | 0.0276 µM and 0.0178 µM | 1.68 µM and 4.38 µM | 0.0334 µM and 0.0313 µM | 0.813 µM and 1.56 µM | 0.0182 µM and 0.0111 µM | 1.76 µM and 1.03 µM | 0.0147 µM and 0.0102 µM | 0.193 µM and 0.114 µM | 0.0359 µM and 0.0195 µM | 0.502 µM and 0.103 µM | 0.0334 µM and 0.0146 µM | 2.78 µM and 1.87 µM | 0.0208 µM and 0.0174 µM | 0.866 µM and 1.43 µM | 0.0521 µM and 0.0346 µM | 4.3 µM and 0.991 µM | 0.0142 µM and < 0.0116 µM | 0.0963 µM and 0.122 µM |
| COc1cc2ccc3c4cc(OC)c(OC(C)C)cc4cnc3c2cc1OC | – | > 100 µM | – | > 100 µM | – | > 100 µM | – | > 100 µM | – | > 100 µM | – | > 100 µM | – | > 100 µM | – | > 100 µM | – | > 100 µM | – | > 100 µM |
| O=C(/C=C/c1cc(CN2CCOCC2)c(O)c2ncccc12)c1cc(CN2CCOCC2)c(O)c2ncccc12 | 0.0595 µM | 42.6 µM | 0.0842 µM | > 100 µM | 0.594 µM | > 100 µM | 0.0586 µM | > 100 µM | 0.0506 µM | > 64.2 µM | 0.14 µM | 14.3 µM | 0.0535 µM | > 100 µM | 0.0585 µM | > 100 µM | 0.0292 µM | 0.525 µM | 0.0433 µM | 23.6 µM |
| NC(CS/C(Cl)=C/Cl)C(=O)O (stereo unspecified) | > 75.9 µM | > 100 µM | 72.5 µM | > 100 µM | 43.6 µM | > 100 µM | 56.5 µM | > 100 µM | 8.19 µM | > 68.3 µM | > 44.6 µM | > 87.2 µM | 49.2 µM | > 100 µM | > 100 µM | > 100 µM | 33.2 µM | > 100 µM | > 100 µM | > 100 µM |
| COC(=O)/C(C=O)=C/Sc1ccccc1 | – | 50.9 µM | – | 62 µM | – | 59.2 µM | – | > 100 µM | – | 42.6 µM | – | 51.7 µM | – | 65.8 µM | – | 93.8 µM | – | > 100 µM | – | 33.2 µM |
| CC1=NN(C(=O)CC(=O)N(C(=O)c2ccccc2Cl)c2ccc(C)cc2)C(=O)C1N=Nc1ccc([N+](=O)[O-])cc1 (stereo unspecified) | – | > 72 µM | – | > 100 µM | – | > 100 µM | – | > 100 µM | – | > 100 µM | – | 77.5 µM | – | > 100 µM | – | > 100 µM | – | > 78.5 µM | – | 51.4 µM |
| Nc1nc(SN=Nc2ccc(S(N)(=O)=O)cc2)c2[nH]cnc2n1 | 0.354 µM | > 21.7 µM | 0.332 µM | 6.57 µM | 2.29 µM | > 52.5 µM | 0.623 µM | > 100 µM | 0.393 µM | 9 µM | 0.394 µM | 5.52 µM | 0.511 µM | 7.93 µM | 0.629 µM | > 100 µM | 0.429 µM | 22.4 µM | 0.552 µM | > 100 µM |
| O=C(Nc1ccc(-n2cc(-c3ccncc3)c(-c3ccc(Cl)c(O)c3)n2)cc1)Nc1ccc(Cl)c(C(F)(F)F)c1 | 0.363 µM | 2.14 µM | 3.01 µM | 15.3 µM | 1.63 µM | 3.45 µM | 1.67 µM | 3.43 µM | 1.43 µM | 3.11 µM | 0.755 µM | 2.31 µM | 1.48 µM | 3.11 µM | 3.3 µM | 8.98 µM | 1.57 µM | 4.21 µM | 1.31 µM | 3.48 µM |
| COc1ccc2c(O)cc3c(c2c1)[C@H](CCl)CN3C(=O)c1cc2cc(NC(=O)CCN3CCOCC3)ccc2[se]1 | < 0.001 µM | 0.00156 µM | < 0.001 µM | < 0.001 µM | < 0.001 µM | < 0.001 µM | < 0.001 µM | 0.00121 µM | – | – | < 0.001 µM | < 0.001 µM | < 0.001 µM | > 10 µM | < 0.001 µM | 1.29 µM | < 0.001 µM | 0.00216 µM | < 0.001 µM | 0.00264 µM |
| O=C(Nc1cc(Cl)ccc1Cl)C(=O)C(c1cnc2ccccc2n1)[N+](=O)[O-] (stereo unspecified) | – | > 100 µM | – | > 100 µM | – | > 100 µM | – | > 100 µM | – | > 100 µM | – | > 100 µM | – | > 100 µM | – | > 100 µM | – | > 100 µM | – | > 100 µM |
| Oc1cn(-c2ccc(Cl)cc2)nc1-c1n[nH]c(=S)n1C1CCCCC1 | 0.165 µM | 0.702 µM | 0.389 µM | > 100 µM | 0.639 µM | > 100 µM | 0.322 µM | 1.98 µM | 0.682 µM | 38.7 µM | > 24.6 µM | > 100 µM | < 0.0456 µM | 0.424 µM | 3.05 µM | > 100 µM | 38.7 µM | > 100 µM | 0.312 µM | 1.11 µM |
| CC(C)CCCC(C)[C@H]1CCC2[C@H]3C(CC[C@@]21C)[C@@]1(C)CCC=C[C@]12C[C@@H]2[C@@H]3O (stereo partly specified) | – | > 100 µM | – | > 100 µM | – | > 100 µM | – | – | – | > 100 µM | – | > 100 µM | – | > 100 µM | – | > 100 µM | – | > 100 µM | – | > 100 µM |
